In ChEMBL document CHEMBL1150664, “New bioactive peroxides from marine sponges of the family plakiniidae” (2002):
Converted amounts (≈) assume the structure as drawn.

system: Aspergillus fumigatus; assay: Antimicrobial activity against Aspergillus fumigatus by standard microdilution broth method; type: functional

Structure (SMILES) | IC90 [µg/mL]
C[C@@H]1[C@H](O)[C@@H](C)/C=C/C=C/C=C/C=C/C=C/C=C/C=C/[C@H](O[C@@H]2O[C@H](C)[C@@H](O)[C@H](N)[C@@H]2O)C[C@@H]2O[C@](O)(C[C@@H](O)C[C@@H](O)[C@H](O)CC[C@@H](O)C[C@@H](O)CC(=O)O[C@H]1C)C[C@H](O)[C@H]2C(=O)O [AMPHOTERICIN B] | 1 (≈ 1.08 µM)
CC/C=C/C(CC)C/C=C/[C@@]1(CC)C[C@H](CC)[C@@H](CC(=O)O)OO1 (stereo partly specified) | 5.6 (≈ 16.5 µM)

system: Candida albicans; assay: Antimicrobial activity against Candida albicans by standard microdilution broth method; type: functional

Structure (SMILES) | MIC [µg/mL]
CC(CCCCCCC/C=C/C=C/c1ccccc1)C[C@]1(C)C[C@](C)(CC(=O)O)OO1 (relative stereo) | 1.6 (≈ 3.73 µM)
CC(CCCCCCC/C=C/C=C/c1ccccc1)C[C@]1(C)C[C@@](C)(CC(=O)O)OO1 (relative stereo) | 1.6 (≈ 3.73 µM)
CC/C=C/C(CC)C/C=C/[C@@]1(CC)C[C@H](CC)[C@@H](CC(=O)O)OO1 (stereo partly specified) | 5 (≈ 14.8 µM)
Nc1nc(=O)[nH]cc1F [FLUCYTOSINE] | 1.62 (≈ 12.5 µM)
